# Patent publication US20080293699A1, “Inhibitors of thapsigargin-induced cell death” (priority 2007, published 2008)
# Entries after “also recorded” stand apart in the source; their conditions may differ. Like-named read-outs stand apart in the source and are kept apart here.
# Legend:
# Assay type in all cases: cell-based, rat
# CSM14.1 cells [1] = test: Annexin V staining viability assay (flow cytometry), thapsigargin-treated undifferentiated CSM14.1 cells; conditions: hit compounds 25 μM, TG 15 μM
# Description: Undifferentiated CSM14.1 cells were cultured as for FIG. 16. The next day, DMSO (a, b) (1% final volume), 100 μM Salubrinal (c, d) or 25 μM of hit compounds (1% final DMSO) was added. After two hrs, 15 μM TG was added to all wells except a and c. The plates were returned to culture for 24 hrs, then cells were recovered by trypsinization, transferred to 1.5 ml microcentrifuge tubes, and resuspended in 0.5 mL of Annexin V-binding solution. The percentage of annexin V-negative cells was determined by flow-cytometry (y-axis). Treatments and compounds were the same as in FIG. 16.
# One method we have employed, for example, for confirming protection against TG-induced killing uses fluorochrome-conjugated annexin V staining with flow-cytometry analysis to evaluate the percentage cell viability by a method that is independent of the ATP content assay.
# FIGS. 16 and 17 show the results of a secondary assay for evaluating the cytoprotective activity of the compounds. In FIG. 16, undifferentiated CSM14.1 cells were cultured at 10^4 cells per well of 24-well plates (Greiner Bio One). The next day, DMSO (a, b) (1% final volume), 100 μM Salubrinal (c, d) or 25 μM of hit compounds (1% final DMSO) was added. After two hrs, 15 μM TG was added to all wells except a and c. A conventional ATP assay was performed to measure survival rate. In FIG. 17 undifferentiated CSM14.1 cells were cultured at 10^4 cells per well of 24-well plates (Greiner Bio One). The next day, DMSO (a, b) (1% final volume), 100 μM Salubrinal (c, d) or 25 μM of hit compounds (1% final DMSO) was added. After two hrs, 15 μM TG was added to all wells except a and c. […] The percentage of annexin V-negative cells was determined by flow-cytometry (y-axis), using a FACSort instrument (Beckton-Dickinson). […]
# 7) The percentage of annexin V-negative cells was determined by flow-cytometry (y-axis), using a FACSort analysis facility in Burnham (Beckton & Dickinson)
# CSM14.1 cells [2] = test: Primary HTS assay: ATP content (ATPlite) of undifferentiated CSM14.1 cells challenged with thapsigargin; conditions: for IC50: thapsigargin-induced death of undifferentiated CSM14.1, ATP content; for Protection against TG-induced cell death by Salubrinal: 100 μM Salubrinal, 15 μM TG, undifferentiated CSM14.1, ATP
# From the text: For convenience, and because transient reductions in temperature that might be associated with large screening experiments could restore Large T activity, we elected to develop our HTS using undifferentiated CSM14.1 cells, with the plan to then confirm hits using differentiated cells. For monitoring cell death, we used a commercially available bioluminescence reagent that determines intracellular ATP content, without requirement for complicated cell processing steps (ATPlite, Perkin Elmer). Thus, ATP was used as a surrogate indicator of cell survival for the primary assay.
# Undifferentiated or differentiated CSM14.1 cells were plated at a density of 3,000 cells/well in 40 μL DMEM medium (containing 10% serum, 1 mM L-glutamine, and antibiotics) in 96 well flat-bottom microtiter plates composed of polystrene (Greiner Bio One, polystyrene, white wall, flat bottom, lumitrac, high binding). After overnight incubation at 32° C., DMSO (0.5% v/v) or 100 uM Salubrinal (Sal) in DMSO was delivered. After 2 hrs, 5 uL of a stock solution of 150 uM TG in DMEM medium containing 0.75% (v:v) DMSO to achieve a final concentration of approximately 15 uM. After culturing for 24 hrs, cellular ATP content was measured by addition of 20 uL per well of ATPlite solution (Perkin-Elmer), and then the plates were incubated for three minutes at room temperature, before reading with a Microplate Luminometer (BD Pharmingen Moonlight model 3096).
# To determine the reproducibility of the ATP content assay, we prepared a 96-well plate in which half the wells received TG plus DMSO (assay minimum) and half received TG plus Salubrinal (assay maximum), then performed the ATP content studies using undifferentiated CSM14.1 cells (FIG. 6). CSM14.1 cells were cultured overnight at 3,000 cells per well in 96-well flat-bottom plates, then either DMSO (0.5% final concentration) or Salubrinal (100 μM) in DMSO (0.5% final concentration) was added to half the well (48 each). After two hrs, TG was added to all wells (15 μM final). Cells were cultured for 24 hrs, then the ATP content was measured using the ATPlite luminogenic assay. We then adapted this assay to the high-throughput environment, using a Biomex™ FX liquid handler for automated dispensing of assay components into microwells of 96-well plates. First, undifferentiated CSM14.1 cells were grown at 32° C. in DMEM medium supplemented with 10% fetal bovine serum (FBS), 1% penicillin/streptomycin, and 1% L-glutamine in 150 mm×25 mm polystyrene culture dishes to produce approximately 3×10^6 cells. Second, CSM14.1 cells were recovered from cultures by trypsinization when at 80-90% confluence, and suspended at 7.5×10^4 cells/mL in DMEM medium containing 2% FBS, 1 mM L-glutamine, and antibiotics 100 IU penicillin 100 μg/ml streptomycin. Third, the cell suspension was then delivered at 40 μL per well of 96-well plastic microtiter plates (Greiner Bio One, polystyrene, white wall, flat bottom, lumitrac, high binding, cat #655074), and the plates were cultured overnight at 32° C. in a humidified atmosphere in 95% air: 5% CO2. Fourth, using the automated liquid handler, 5 μL of test compounds in 10% DMSO were added to wells in columns 2-11 of the 96-well plates (leaving columns 1 and 12 intact) to achieve an approximate final concentration of 15 μg/mL test compound and a final concentration of 1% DMSO. Fifth, 5 μL of 1 mM Salubrinal in a solution of 10% DMSO:90% DMEM was added to wells of column 1/rows A-D of each plate, while 5 μL of 10% DMSO:90% DMEM solution was added to wells corresponding to column 1/rows E-H and to all wells in column 12. Sixth, the plates were returned to culture.
# CSM 14.1 cells = test: MTS assay of thapsigargin-induced death of CSM 14.1 cells; conditions: salubrinal two hours before 7.5 mM thapsigargin, 18 hours
# Description: CSM 14.1 cells were plated at a density of 3×10^3 cells per well in 96-well plates and incubated overnight. The indicated concentration of salubrinal was pre incubated with cells for two hours, followed by […] thapsigargin treatment. 18 hours later, cell death rates were measured by the MTS assay. For the MTS assay, the CellTiter 960 Aqueous Non-radioactive Cell Proliferation Assay kit (Promega) was used. The reaction-ready solution was made according to the manufacturer's protocol, and each treated well of the 96-well plate was incubated with 20 μl of the reaction-ready solution. The plates were incubated humidified cell incubator at 37° C. with 5% CO2 for two hours, and the absorbance of each well was read by an ELISA plate reader at 490 nm wavelength. To determine the background level of absorbance, the same volume of culture media (DMEM without cells) was incubated with MTS solution. The background value was subtracted from the value of each well. Background values from the control treatment (no TG, no Sal) wells were set as 100% survival, and the experimental wells' values were evaluated as the percentage of the control value.
# [3] = tested on: differentiated CSM14.1 cells; test: ATP content assay, thapsigargin-treated differentiated CSM14.1 cells; conditions: compound 25 μM with 10 μM thapsigargin, Salubrinal 100 μM
# Description: Of the 26 compounds shown in Table 9, 16 were subsequently confirmed to protect differentiated CSM14.1 cells from TG-induced cell death. For these assays, CSM14.1 cells were differentiated by culture in 2% FBS for 7 days at non-permissive temperature of 39° C. […] CSM14.1 cells were plated at 1,500 cells per well in 96-well plates, and cultured overnight at 32° C. (permissive temperature; FIG. 14, left) or at 39° C. (non-permissive temperature, FIG. 14, right) for 7 days. […] ATP content was measured, and data were expressed as a percentage of control cells treated only with 1% DMSO (mean ±SD; n=3). Two percent FBS was used during differentiation, but all assays were performed in 10% FBS.
# For PC12, cells were stimulated with 20 ng/ml NGF for five days; for C17.2, cells were stimulated with serum reduction, and 1% N2 incubation for three days; for CSM14.1, cells were cultured at 39° C. for 5-7 days.
# CSM14.1 cells were plated at 1,500 cells per well in 96-well plates and cultured at 39° C. (non-permissive temperature) for 7 days. […] ATP content was measured and data were expressed as a percentage of control cells treated with only 1% DMSO.
# CSM14.1 cells [4] = test: Tunicamycin-induced cell death of CSM14.1 cells; conditions: 100 μm salubrinal; stated in the description of FIG. 13 (tunicamycin, annexin V flow cytometry)
# Description: CSM 14.1 cells were plated at a density of 3×10^3 cells/well in 96-well plates and incubated overnight. Cells were pre-incubated with 25 μM of each compound or 100 μM salubrinal for two hours, followed by […] tunicamycin treatment. 72 hours later, cell death rates were measured by flow cytometry analysis. Annexin V-negative population was considered as survivors. In FIG. 13, the white column represents 0.5% DMSO control showing 24% of survival, and the gray column 100 μM salubrinal. Black columns are data from each compound (25 μM) (compound numbers refer to the compounds in Table 9).
# For the experiments shown in FIG. 18, undifferentiated CSM 14.1 cells were plated at 3,000 cells per well in 96-well plates (for the ATP assay) or at 1×10^4 cells per well in 24-well plates (for flow cytometry). The next day, cells were treated with DMSO (0.5%) or hit compounds 25 μM of a compound with 0.5% DMSO final concentration) for two hours, followed by treatment with various cell death-inducing reagents, including 15 μM Thapsigargin (TG) for 24 hrs, 10 μg/mL tunicamycin (TU) for 72 hrs, 2.5 μM staurosporine (STS) for 24 hrs, 50 μM VP16 for 48 hrs, or 30 ng/mL TNF plus 10 μg/mL cyclohexamide (CHX) for 24 hrs. Cellular ATP content was measured for staurosporine samples and TNF/CHX samples, normalizing data relative to cells treated with DMSO alone (the control) and presenting as a percentage of control. For measuring cell death resulting from treatment with tunicamycin and VP16, flow cytometry was used. All assays were performed in triplicate (mean ±SD).
# CSM14.1 cells [5] = test: Pilot dose-response of thapsigargin on undifferentiated CSM14.1 cells (ATP content, vital dye exclusion)
# Description: In pilot experiments, undifferentiated CSM14.1 cells were plated at various densities in wells of a 96 well plate, cultured overnight, then the ATP content of the cells was measured using the luminogenic ATPlite reagent (FIG. 4A). We also performed dose-response experiments for thapsigargin (FIG. 4B) by culturing CSM14.1 cells at 3,000 cells per well overnight, then treating the cells with various concentrations of TG or Sal and cultured for 18 hrs before determining ATP content (mean ±SD; n=3) (FIG. 4B). Similarly, we performed dose response experiments for Salubrinal (Sal). Cells were plated and cultured as above, then treated with various concentrations of Salubrinal, followed two hrs later by 15 uM TG. Cells were cultured for 18 hrs, then ATP content was determined (mean ±SD; n=3) (FIG. 4C). […] As a control, we employed Salubrinal, which was reported to block ER stress-induced cell death (Boyce et al., Science, 307:935-939, 2005).
smiles,measurement,setting,value
COc1cccc(CN2CCN(C(=O)c3ccc(-c4ccccc4)cc3)CC2)c1 [Compound 5998734],Protection against TG-induced cell death measured by annexin V staining,CSM14.1 cells [1],less active
same,IC50,"CSM14.1 cells [2]; first assay, read-out: IC50 (μM), first value",20 ± 0.493 µM
same,IC50,"CSM14.1 cells [2]; second assay (value in bold), read-out: IC50 (μM), value from a second assay",14.6 ± 26.6 µM
O=C(CN1CC[n+]2c(-c3cccs3)csc21)c1ccccc1.[Br-] [Compound 5979207],Protection against TG-induced cell death measured by annexin V staining,CSM14.1 cells [1],less active
same,Activity against thapsigargin-induced cell death / cell protection,CSM14.1 cells [2]; cell death assay used for primary screening,potent inhibitor of cell death
"O=C(/C=C/c1ccccc1)NC(NC(=S)Nc1cccc2cccnc12)C(Cl)(Cl)Cl (stereo not drawn) [Salubrinal, reference compound]","Inhibition of thapsigargin-induced cell death, MTS assay",CSM 14.1 cells,less efficiently than our hit compounds
same,Protection of differentiated CSM14.1 cells from thapsigargin-induced death,[3],protects
same,Protection against TG-induced cell death by Salubrinal,CSM14.1 cells [2],significantly protected; also recorded: protects
same,Protection against TG-induced cell death by Salubrinal,CSM14.1 cells [2]; listed as Sal,protects
same,Inhibition of tunicamycin-induced cell death,CSM14.1 cells [4],75%
C/C=C(/C)C(=O)O[C@H]1C(C)=C2[C@H]([C@@H]1OC(=O)CCCCCCC)[C@@](C)(OC(C)=O)C[C@H](OC(=O)CCC)[C@@]1(O)[C@H]2OC(=O)[C@@]1(C)O [thapsigargin],reduction in ATP per well,"CSM14.1 cells [5]; 15 μM thapsigargin, 3,000 cells per well, 18 hrs",~95%
same,cell killing,"CSM14.1 cells [5]; 15 μM thapsigargin, vital dye exclusion assays",~95%
